Data reported in ChEMBL document CHEMBL1201862, “PubChem BioAssay data set” (2004).
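Five concentrations, 48 hours, 96-well plates. Here, GI50 denotes the concentration required for 50% inhibition of growth.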 Activity calls are given as the source filed them. Cut-off read from the data, not from the text of the source: active = GI50 up to about 1.1 µM and inactive = higher.

Assays:
Experiment in all cases: inhibition of tumour cell growth, NCI panel, 48 h
786-0 = tested on: 786-0
A498 = tested on: A498
A549 = tested on: A549
ACHN = tested on: ACHN
CAKI-1 = tested on: CAKI-1
CCRF-CEM = tested on: CCRF-CEM
COLO 205 = tested on: COLO 205
DLD-1 = tested on: DLD-1
DMS-114 = tested on: DMS-114
DMS-273 = tested on: DMS-273
EKVX = tested on: EKVX
HCC 2998 = tested on: HCC 2998
HCT-116 = tested on: HCT-116
HCT-15 = tested on: HCT-15
HL-60 = tested on: HL-60
HOP-62 = tested on: HOP-62
HOP-92 = tested on: HOP-92
HT-29 = tested on: HT-29
IGROV-1 = tested on: IGROV-1
K562 = tested on: K562
KM-20L2 = tested on: KM-20L2
KM12 = tested on: KM12
LOX IMVI = tested on: LOX IMVI
LXFL 529 = tested on: LXFL 529
M14 = tested on: M14
M19-MEL = tested on: M19-MEL
MOLT-4 = tested on: MOLT-4
Malme-3M = tested on: Malme-3M
NCI-H226 = tested on: NCI-H226
NCI-H23 = tested on: NCI-H23
NCI-H460 = tested on: NCI-H460
NCI-H522 = tested on: NCI-H522
OVCAR-3 = tested on: OVCAR-3
OVCAR-4 = tested on: OVCAR-4
OVCAR-5 = tested on: OVCAR-5
OVCAR-8 = tested on: OVCAR-8
RXF 393 = tested on: RXF 393
RXF 631 = tested on: RXF 631
SF-268 = tested on: SF-268
SF-295 = tested on: SF-295
SF-539 = tested on: SF-539
SK-MEL-28 = tested on: SK-MEL-28
SK-MEL-2 = tested on: SK-MEL-2
SK-MEL-5 = tested on: SK-MEL-5
SK-OV-3 = tested on: SK-OV-3
SN12C = tested on: SN12C
SNB-19 = tested on: SNB-19
SNB-75 = tested on: SNB-75
SNB-78 = tested on: SNB-78
SW-620 = tested on: SW-620
TK-10 = tested on: TK-10
U-251 = tested on: U-251
UACC-257 = tested on: UACC-257
UACC-62 = tested on: UACC-62
UO-31 = tested on: UO-31

CC1/C(=N\O)CC(c2ccccc2)N(C)C1c1ccccc1 (stereo not given)
GI50 (786-0): > 100 µM (inactive) | GI50 (A498): > 100 µM (inactive) | GI50 (A549): > 100 µM (inactive) | GI50 (ACHN): > 100 µM (inactive) | GI50 (CAKI-1): > 100 µM (inactive) | GI50 (CCRF-CEM): > 100 µM (inactive) | GI50 (COLO 205): > 100 µM (inactive) | GI50 (DLD-1): > 100 µM (inactive) | GI50 (DMS-114): > 100 µM (inactive) | GI50 (DMS-273): > 100 µM (inactive) | GI50 (EKVX): > 100 µM (inactive) | GI50 (HCC 2998): > 100 µM (inactive) | GI50 (HCT-116): > 100 µM (inactive) | GI50 (HCT-15): > 100 µM | GI50 (HL-60): > 100 µM (inactive) | GI50 (HOP-62): > 100 µM (inactive) | GI50 (HOP-92): > 100 µM (inactive) | GI50 (HT-29): > 100 µM (inactive) | GI50 (IGROV-1): > 100 µM (inactive) | GI50 (K562): > 100 µM (inactive) | GI50 (KM-20L2): > 100 µM (inactive) | GI50 (KM12): > 100 µM (inactive) | GI50 (LOX IMVI): > 100 µM (inactive) | GI50 (LXFL 529): > 100 µM (inactive) | GI50 (M14): > 100 µM (inactive) | GI50 (M19-MEL): > 100 µM (inactive) | GI50 (MOLT-4): > 100 µM (inactive) | GI50 (Malme-3M): 80.9 µM (inactive) | GI50 (NCI-H226): > 100 µM (inactive) | GI50 (NCI-H23): > 100 µM (inactive) | GI50 (NCI-H460): > 100 µM (inactive) | GI50 (NCI-H522): > 100 µM (inactive) | GI50 (OVCAR-3): > 100 µM (inactive) | GI50 (OVCAR-4): > 100 µM (inactive) | GI50 (OVCAR-5): > 100 µM (inactive) | GI50 (OVCAR-8): > 100 µM (inactive) | GI50 (RXF 393): > 100 µM (inactive) | GI50 (RXF 631): > 100 µM (inactive) | GI50 (SF-268): > 100 µM (inactive) | GI50 (SF-295): > 100 µM (inactive) | GI50 (SF-539): > 100 µM (inactive) | GI50 (SK-MEL-28): > 100 µM (inactive) | GI50 (SK-MEL-2): > 100 µM (inactive) | GI50 (SK-MEL-5): > 100 µM (inactive) | GI50 (SK-OV-3): > 100 µM (inactive) | GI50 (SN12C): > 100 µM (inactive) | GI50 (SNB-19): > 100 µM (inactive) | GI50 (SNB-75): > 100 µM (inactive) | GI50 (SNB-78): > 100 µM (inactive) | GI50 (SW-620): > 100 µM (inactive) | GI50 (TK-10): > 100 µM (inactive) | GI50 (U-251): > 100 µM (inactive) | GI50 (UACC-257): > 100 µM (inactive) | GI50 (UACC-62): > 100 µM (inactive) | GI50 (UO-31): > 100 µM (inactive)
